Reference: ChEMBL document CHEMBL1138732, “Evans Blue is an inhibitor of nuclear factor-kappa B (NF-kappaB)-DNA binding” (Bioorg Med Chem Lett, 2004)

Biological target: T1, Nuclear factor NF-kappa-B p105 subunit (Homo sapiens) (UniProt P19838)
T1 sequence (whole entry): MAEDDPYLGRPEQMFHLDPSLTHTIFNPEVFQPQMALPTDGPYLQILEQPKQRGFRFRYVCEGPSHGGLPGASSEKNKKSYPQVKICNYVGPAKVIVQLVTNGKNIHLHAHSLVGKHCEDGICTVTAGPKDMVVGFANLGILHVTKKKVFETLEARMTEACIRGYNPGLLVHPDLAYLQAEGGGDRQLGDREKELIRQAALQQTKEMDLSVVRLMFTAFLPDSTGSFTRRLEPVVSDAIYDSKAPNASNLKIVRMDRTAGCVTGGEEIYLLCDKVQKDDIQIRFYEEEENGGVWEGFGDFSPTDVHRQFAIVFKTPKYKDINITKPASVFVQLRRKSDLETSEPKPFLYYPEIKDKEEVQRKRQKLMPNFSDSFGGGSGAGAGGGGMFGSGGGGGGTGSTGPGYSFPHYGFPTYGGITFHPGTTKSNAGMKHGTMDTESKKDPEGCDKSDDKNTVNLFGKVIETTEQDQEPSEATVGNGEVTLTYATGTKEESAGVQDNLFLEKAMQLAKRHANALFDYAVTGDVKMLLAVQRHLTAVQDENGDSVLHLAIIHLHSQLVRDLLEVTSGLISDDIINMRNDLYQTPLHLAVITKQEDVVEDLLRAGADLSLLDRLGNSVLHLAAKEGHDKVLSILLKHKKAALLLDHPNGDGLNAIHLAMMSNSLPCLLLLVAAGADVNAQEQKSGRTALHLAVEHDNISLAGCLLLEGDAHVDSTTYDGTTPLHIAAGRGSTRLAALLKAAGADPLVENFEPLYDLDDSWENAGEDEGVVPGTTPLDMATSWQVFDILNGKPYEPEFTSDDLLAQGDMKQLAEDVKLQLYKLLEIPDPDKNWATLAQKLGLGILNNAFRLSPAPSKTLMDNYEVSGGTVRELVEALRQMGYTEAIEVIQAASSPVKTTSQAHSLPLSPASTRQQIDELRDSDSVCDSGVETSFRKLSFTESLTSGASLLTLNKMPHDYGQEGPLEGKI
Experiment: inhibitory effect on the DNA binding of Nuclear factor kappa B; Active

`Cc1cc(-c2ccc(/N=N/c3ccc4c(S(=O)(=O)O)cc(S(=O)(=O)O)c(N)c4c3O)c(C)c2)ccc1/N=N/c1ccc2c(S(=O)(=O)O)cc(S(=O)(=O)O)c(N)c2c1O` gave a Concentration of 100 µM.
